Source: the supplement of paper PMC10307832

compound: O=C(c1cc(Cc2n[nH]c(=O)c3ccccc23)ccc1F)N1CCN(C(=O)C2CC2)CC1 [Olaparib] + Nc1ncn([C@H]2C[C@H](O)[C@@H](CO)O2)c(=O)n1 [Decitabine] (partner 2 µM); assay: relative viability (nuclei count vs DMSO), 5 days (fraction); higher = more cells survive; conditions: first compound 0.08 µM
How it was run: (§1)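 Medians of duplicate plates are given as relative viability. That measure is the nuclei count in treated wells divided by the count in vehicle wells. Counts were taken on 4× images of lung cancer cell lines in 1536-well plates, 5 days after pin-tool dosing the day after seeding with one drug alone or a fixed anchor-drug dose plus five library-drug doses (not always all listed) in √10 steps.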

| Cell Line | relative viability |
| --- | --- |
| SK-LU-1 | 0.476 |
| SK-MES-1 | 0.305 |
| SW 1573 | 0.32 |
| UMC-11 | 0.497 |

same assay, conditions: first compound 0.253 µM

| Cell Line | relative viability |
| --- | --- |
| SK-LU-1 | 0.484 |
| SK-MES-1 | 0.299 |
| SW 1573 | 0.301 |

same assay, conditions: first compound 2.53 µM

| Cell Line | relative viability |
| --- | --- |
| SK-LU-1 | 0.504 |
| SK-MES-1 | 0.303 |
| SW 1573 | 0.16 |
| UMC-11 | 0.405 |

same assay, conditions: first compound 8 µM

| Cell Line | relative viability |
| --- | --- |
| SK-LU-1 | 0.452 |
| SK-MES-1 | 0.262 |
| SW 1573 | 0.139 |
| UMC-11 | 0.4 |

compound: C[C@@H](Oc1cc(-c2cnn(C3CCNCC3)c2)cnc1N)c1c(Cl)ccc(F)c1Cl [Crizotinib] + C[C@]1(O)C[C@@H](c2nc(-c3ccc4ccc(-c5ccccc5)nc4c3)c3c(N)nccn32)C1 [Linsitinib] (partner 1 µM); assay: as above; conditions: first compound 0.01 µM
How it was run: as §1

| Cell Line | relative viability |
| --- | --- |
| SK-LU-1 | 1.07 |
| SK-MES-1 | 1.02 |
| SW 1573 | 0.707 |

same assay, conditions: first compound 0.03162 µM

| Cell Line | relative viability |
| --- | --- |
| SK-LU-1 | 1.12 |
| SK-MES-1 | 1.1 |
| SW 1573 | 0.73 |
| UMC-11 | 1.04 |

same assay, conditions: first compound 0.1 µM

| Cell Line | relative viability |
| --- | --- |
| SK-LU-1 | 1.22 |
| SK-MES-1 | 1.15 |
| SW 1573 | 0.802 |

same assay, conditions: first compound 0.3162 µM

| Cell Line | relative viability |
| --- | --- |
| SK-LU-1 | 1.14 |
| SK-MES-1 | 0.982 |
| SW 1573 | 0.802 |
| UMC-11 | 1.16 |

same assay, conditions: first compound 1 µM

| Cell Line | relative viability |
| --- | --- |
| SK-LU-1 | 1.11 |
| UMC-11 | 0.96 |

compound: CC(C)C[C@H](NC(=O)[C@H](CCc1ccccc1)NC(=O)CN1CCOCC1)C(=O)N[C@@H](Cc1ccccc1)C(=O)N[C@@H](CC(C)C)C(=O)[C@@]1(C)CO1 [Carfilzomib] + Nc1nc2[nH]cc(CCc3ccc(C(=O)N[C@@H](CCC(=O)O)C(=O)O)cc3)c2c(=O)[nH]1 [Pemetrexed] (partner 0.2 µM); assay: as above; conditions: first compound 0.001 µM
How it was run: as §1

| Cell Line | relative viability |
| --- | --- |
| SK-LU-1 | 0.946 |
| SK-MES-1 | 1.02 |
| SW 1573 | 0.809 |
| UMC-11 | 0.803 |

same assay, conditions: first compound 0.003162 µM

| Cell Line | relative viability |
| --- | --- |
| SK-LU-1 | 1.03 |
| SK-MES-1 | 1.1 |
| SW 1573 | 0.927 |
| UMC-11 | 0.928 |

same assay, conditions: first compound 0.01 µM

| Cell Line | relative viability |
| --- | --- |
| SK-LU-1 | 0.978 |
| SK-MES-1 | 1.14 |
| SW 1573 | 0.613 |
| UMC-11 | 0.881 |

same assay, conditions: first compound 0.03162 µM

| Cell Line | relative viability |
| --- | --- |
| SK-LU-1 | 0.258 |
| SK-MES-1 | 0.786 |
| SW 1573 | 0.071 |
| UMC-11 | 0.652 |

same assay, conditions: first compound 0.1 µM

| Cell Line | relative viability |
| --- | --- |
| SK-LU-1 | 0.182 |
| SK-MES-1 | 0.177 |
| SW 1573 | 0.0521 |
| UMC-11 | 0.251 |

compound: C[C@@H](Oc1cc(-c2cnn(C3CCNCC3)c2)cnc1N)c1c(Cl)ccc(F)c1Cl [Crizotinib] + Cc1nc(NC(=O)N2CCC[C@H]2C(N)=O)sc1-c1ccnc(C(C)(C)C(F)(F)F)c1 [Alpelisib] (partner 2 µM); assay: as above; conditions: first compound 0.01 µM
How it was run: as §1

| Cell Line | relative viability |
| --- | --- |
| SK-LU-1 | 0.989 |
| SK-MES-1 | 0.775 |
| SW 1573 | 0.663 |
| UMC-11 | 0.961 |

same assay, conditions: first compound 0.03162 µM

| Cell Line | relative viability |
| --- | --- |
| SK-LU-1 | 1.04 |
| SK-MES-1 | 0.929 |
| SW 1573 | 0.896 |
| UMC-11 | 0.921 |

same assay, conditions: first compound 0.1 µM

| Cell Line | relative viability |
| --- | --- |
| SK-LU-1 | 1.11 |
| SK-MES-1 | 0.79 |
| SW 1573 | 0.638 |
| UMC-11 | 0.968 |

same assay, conditions: first compound 0.3162 µM

| Cell Line | relative viability |
| --- | --- |
| SK-LU-1 | 1.17 |
| SK-MES-1 | 0.803 |
| SW 1573 | 0.732 |
| UMC-11 | 0.956 |

same assay, conditions: first compound 1 µM

| Cell Line | relative viability |
| --- | --- |
| SW 1573 | 0.779 |
| UMC-11 | 0.974 |
